# Test results as given in patent US5455234A, “Inhibition of hair growth” (priority 1994, dated 1995).
# How the values were obtained:
# [1] = tested on: flank organs of Golden Syrian hamsters (androgen-stimulated hair growth); assay: Golden Syrian hamster assay (flank organ hair mass after topical application); type: in vivo
# Source text: Male intact Golden Syrian hamsters are considered acceptable models for human beard hair growth in that they display oval shaped flank organs, one on each side, each about 8 mm. in major diameter, which grow thick black and coarse hair similar to human beard hair. These organs produce hair in response to androgens in the hamster. To evaluate the effectiveness of a composition including an inhibitor, the flank organs of each of a group of hamsters are depilated by applying a thioglycolate based chemical depilatory (Surgex). To one organ of each animal 25 μl. of vehicle alone once a day is applied, while to the other organ of each animal an equal amount of vehicle containing an inhibitor of a cysteine synthetic pathway enzyme is applied. After thirteen applications (one application per day for five days a week), the flank organs are shaved and the amount of recovered hair (hair mass) from each is weighed. Percent-reduction of hair growth is calculated by subtracting the hair mass (mg) value of the test compound treated side from the hair mass value of the vehicle treated side; the delta value obtained is then divided by the hair mass value of the vehicle treated side, and the resultant number is multiplied by 100.
# The above-described assay will be referred to herein as the "Golden Syrian hamster" assay.
# [2] = tested on: cysteine synthetic pathway intermediates in flank organ hair follicles; assay: Amino acid analysis of hamster flank organ hair follicles (Pico-Tag); type: in vivo; settings: hair follicles of treated flank organs, vehicle A
# Protocol: Hair follicles were isolated from the flank organs which were treated with either an inhibitor of a cysteine pathway enzyme or the carrier without the inhibitor (the control). L-Cystathiorine, homocysteine, and S-adenosyl homocysteine, which are involved in a pathway leading to cysteine synthesis, were measured by an amino acid analysis method. The amino analysis of hamster flank organ hair follicles was carried out using a commercially available system (Pico-Tag; Waters Associates, Inc., Milford, Mass.). Hair follicle amino acids were extracted with 0.1N HCL, an derivatized with phenylisothiocyanate to yield the phenylthiohydantion derivatives of the respective amino acids, which were then separated by C-18 reverse phase chromatography, and quantitated by in-line UV spectrophotometry.
# More specifically, 250-500 μl of 0.1N HCL was added to each flank organ hair follicle sample, followed by treatment with a sonicator device to obtain cell extracts. The cell extracts were centrifuged at 12,000×gfor 5 min, and the recovered supernatant was filtered through 0.45μ filter. The filtrate was vacuum dried under nitrogen using the Pico-Tag work station. Samples were then derivatized with phenylisothiocyanate reagent by the procedure described in the Waters Associates Pico-Tag manual. An aliquot of the derivatized sample was injected on a C-18 reverse phase column (Pico-Tag column) and the elution was carried out with a gradient buffer system. This procedure separated the amino acids L-cystathionine, homocysteine, and S-adenosyl homocysteine from other amino acids present in hair follicle extracts. The amino acid concentrations were determined at UV wavelength 254 nm using an in-line spectrophotometer and a dedicated HPLC control and data analysis system (Waters Associates).
# [3] = topical, dose 10%, vehicle A, pH 4.5, 13 applications
# [4] = topical, dose 15%, vehicle A, pH 8.0, 13 applications
# [5] = topical, dose 20%, vehicle A, pH 7.0, 13 applications
# [6] = Table 2, topical, dose 0.25%, vehicle A, pH 4.5
# [7] = Table 2, topical, dose 0.50%, vehicle A, pH 5.0
# [8] = Table 2, topical, dose 1.00%, vehicle A, pH 5.0
# [9] = Table 2, topical, dose 5.00%, vehicle A, pH 5.0
# [10] = topical, dose 5%, vehicle A, pH 4.5, 13 applications
# [11] = topical, dose 15%, vehicle B, pH 9.5, 13 applications
# [12] = topical, dose 20%, vehicle A, pH 8.5, 13 applications
# [13] = topical, dose 20%, vehicle A, pH 7.5, 13 applications
smiles,measurement,setting,value
Nc1ncnc2c1ncn2[C@@H]1O[C@H](CO)[C@@H](O)[C@H]1O [Adenosine],Hair Mass Treated (mg mean ± SEM),[1]; [3],1.140 ± 0.12 mg
same,Percent Inhibition (mean ± SEM),[1]; [3],55.28 ± 4.00%
N[C@@H](COC(=O)CCC(=O)O)C(=O)O [O-Succinyl serine],"Homocysteine, Percent of Untreated Control (100%)","[2]; dose 15%, pH 8.0",228%
same,"L-Cystathionine, Percent of Untreated Control (100%)","[2]; dose 15%, pH 8.0",66%
same,Hair Mass Treated (mg mean ± SEM),[1]; [4],0.710 ± 0.07 mg
same,Percent Inhibition (mean ± SEM),[1]; [4],63.58 ± 4.69%
"CC(=O)OC[C@H]1O[C@@H](n2ncc(=O)[nH]c2=O)[C@H](OC(C)=O)[C@@H]1OC(C)=O [6-Azauridine-2',3',5'-triacetate]","L-Cystathionine, Percent of Untreated Control (100%)","[2]; dose 20%, pH 7.0",60%
same,Hair Mass Treated (mg mean ± SEM),[1]; [5],0.455 ± 0.05 mg
same,Percent Inhibition (mean ± SEM),[1]; [5],80.25 ± 2.37%
Nc1nccc2c1ncn2[C@@H]1C=C(CO)[C@@H](O)[C@H]1O [3-Deazaneplanocin],"L-Cystathionine, Percent of Untreated Control (100%)","[2]; dose 0.125%, pH 4.5",49%
same,"S-Adenosyl Homocysteine, Percent of Untreated Control (100%)","[2]; dose 0.125%, pH 4.5",144%
same,"L-Cystathionine, Percent of Untreated Control (100%)","[2]; dose 0.250%, pH 4.5",29%
same,"S-Adenosyl Homocysteine, Percent of Untreated Control (100%)","[2]; dose 0.250%, pH 4.5",149%
same,"L-Cystathionine, Percent of Untreated Control (100%)","[2]; dose 0.500%, pH 4.5",12%
same,"S-Adenosyl Homocysteine, Percent of Untreated Control (100%)","[2]; dose 0.500%, pH 4.5",218%
same,Hair Mass Treated,[1]; [6],1.889 ± 0.15 mg
same,Percent Inhibition (mean ± SEM),[1]; [6],14.82 ± 5.45%
same,Hair Mass Treated,[1]; [7],1.487 ± 0.16 mg
same,Percent Inhibition (mean ± SEM),[1]; [7],35.49 ± 4.62%
same,Hair Mass Treated,[1]; [8],1.113 ± 0.08 mg
same,Percent Inhibition (mean ± SEM),[1]; [8],50.94 ± 4.77%
same,Hair Mass Treated,[1]; [9],0.357 ± 0.15 mg
same,Percent Inhibition (mean ± SEM),[1]; [9],86.65 ± 4.81%
same,dose dependence of inhibition in hair growth,"[1]; topical application, dosage levels 0.25% to 5.00%",increased dosage level of the inhibitor provided an increased inhibition in hair growth
same,Hair Mass Treated (mg mean ± SEM),[1]; [10],0.357 ± 0.15 mg
same,Percent Inhibition (mean ± SEM),[1]; [10],86.65 ± 4.81%
"C#CCC(N)C(=O)O (racemic) [DL-Propargylglycine, D,L-2-amino-4-pentynoic acid]",Hair Mass Treated (mg mean ± SEM),[1]; [11],1.401 ± 0.14 mg
same,Percent Inhibition (mean ± SEM),[1]; [11],33.12 ± 5.59%
NNC(=O)c1ccncc1 [Isonicotinic acid hydrazide],Hair Mass Treated (mg mean ± SEM),[1]; [12],1.344 ± 0.18 mg
same,Percent Inhibition (mean ± SEM),[1]; [12],35.13 ± 7.98%
"NC(C(=O)O)C(F)(F)F (racemic) [3,3,3,-Trifluoro-DL-alanine]",Hair Mass Treated (mg mean ± SEM),[1]; [13],1.110 ± 0.13 mg
same,Percent Inhibition (mean ± SEM),[1]; [13],32.36 ± 8.01%
